Data: the supplement of paper PMC13380429

Key:
[1] = tested on: A549-ACE2 infected with SARS-CoV-2; assay: cell count relative to DMSO; higher = less toxic; conditions: 24 h
Caco-2 [2] = assay: cell viability relative to DMSO; higher = less toxic; conditions: 72 h
HepG2 [3] = assay: as above; conditions: 72 h
U2OS [4] = assay: as above; conditions: 72 h
Vero E6 [5] = assay: as above; conditions: 72 h
[6] = tested on: A549-ACE2 infected with SARS-CoV-2; assay: SARS-CoV-2 infection rate relative to DMSO; higher = more infection; conditions: 24 h
A549-ACE2 = assay: drug-induced phospholipidosis relative to tamoxifen; higher = more phospholipidosis
[7] = tested on: A549-ACE2 infected with SARS-CoV-2; assay: morphology score (similarity to uninfected cells); higher = more like uninfected cells; conditions: 24 h
Caco-2 [8] = assay: relative viability EC50 (midpoint between 100% and the lowest measured viability); higher = less toxic; conditions: 72 h
HepG2 [9] = assay: as above; conditions: 72 h
U2OS [10] = assay: as above; conditions: 72 h
Vero E6 [11] = assay: as above; conditions: 72 h
Caco-2 [12] = assay: drug sensitivity score (DSS) for viability; higher = more toxic; extreme values may be limits of the assay; conditions: 72 h
HepG2 [13] = assay: as above; conditions: 72 h
U2OS [14] = assay: as above; conditions: 72 h
Vero E6 [15] = assay: as above; conditions: 72 h
Calu-3 [16] = assay: cell viability relative to DMSO; higher = less toxic; conditions: 72 h
Calu-3 [17] = assay: relative viability EC50 (midpoint between 100% and the lowest measured viability); higher = less toxic; conditions: 72 h
Calu-3 [18] = assay: drug sensitivity score (DSS) for viability; higher = more toxic; extreme values may be limits of the assay; conditions: 72 h

O=C(Nc1ccc(-c2ccncc2)cc1)N[C@H](CO)c1ccccc1
Conditions | SARS-CoV-2 infection rate, [6] [%] | cell count, [1] [%] | cell viability, Caco-2 [2] [%] | cell viability, HepG2 [3] [%] | cell viability, U2OS [4] [%] | cell viability, Vero E6 [5] [%] | morphology score, [7]
1 nM | – | – | 99.4 | 96.7 | 98.6 | 97 | –
10 nM | – | – | 98.6 | 94.7 | 96.3 | 98.2 | –
0.1 µM | 98 | 105 | – | – | – | – | 0.27
100 nM | – | – | 96.1 | 105 | 99.2 | 98 | –
0.3 µM | 101 | 112 | – | – | – | – | 0.23
1 µM | 94 | 106 | – | – | – | – | 0.26
1000 nM | – | – | 95.3 | 102 | 97.5 | 94.2 | –
3 µM | 110 | 91 | – | – | – | – | -0.17
10000 nM | – | – | 96.4 | 84.8 | 94.7 | 77 | –

drug-induced phospholipidosis [%], A549-ACE2
Conditions | 0.3 µM | 0.833333 µM | 3.33333 µM | 6.66667 µM | 10 µM | 30 µM
24 h | 3.51 | 2.55 | 2.66 | 3.66 | 1.91 | 3.72
48 h | 2.8 | 0.36 | -0.35 | 3.11 | 1.09 | 6.28
72 h | 2.59 | -2.02 | -0.767 | -0.334 | -0.186 | 6.14

Conditions | drug sensitivity score | relative viability EC50 [µM]
Caco-2 [8] | – | > 10
Caco-2 [12] | 0 | –
HepG2 [9] | – | > 10
HepG2 [13] | 0.2 | –
U2OS [10] | – | > 10
U2OS [14] | 0 | –
Vero E6 [11] | – | > 10
Vero E6 [15] | 1.6 | –

Clc1ccc(N/N=C(\c2ccccc2)c2ccccn2)nc1 [JIB04]
Conditions | SARS-CoV-2 infection rate, [6] [%] | cell count, [1] [%] | cell viability, Caco-2 [2] [%] | cell viability, Calu-3 [16] [%] | cell viability, HepG2 [3] [%] | cell viability, U2OS [4] [%] | cell viability, Vero E6 [5] [%] | morphology score, [7]
1 nM | – | – | 89.4 | 101 | 92.7 | 102 | 91.7 | –
10 nM | – | – | 94.1 | 108 | 87.8 | 97.9 | 102 | –
100 nM | – | – | 33.7 | 102 | 19.8 | 95.6 | 89.4 | –
0.3 µM | 104 | 99 | – | – | – | – | – | -0.14
1000 nM | – | – | 11.2 | 14.7 | 6.2 | 34.3 | 53.7 | –
3 µM | 82 | 96 | – | – | – | – | – | 0.28
10 µM | 36 | 88 | – | – | – | – | – | 0.37
10000 nM | – | – | 34.7 | 18.8 | 21.6 | 6.9 | 6.4 | –
30 µM | 50 | 54 | – | – | – | – | – | 0.36

A549-ACE2
Conditions | drug-induced phospholipidosis [%]
0.3 µM, 24 h | 4.18
0.3 µM, 48 h | 6.34
0.3 µM, 72 h | 8.31
0.833333 µM, 24 h | -0.88
3.33333 µM, 24 h | -2.31
6.66667 µM, 24 h | 22.5
10 µM, 24 h | 26.1
30 µM, 24 h | 2.4

Conditions | drug sensitivity score | relative viability EC50 [µM]
Caco-2 [8] | – | 0.0502
Caco-2 [12] | 24.6 | –
Calu-3 [17] | – | 0.327
Calu-3 [18] | 15.3 | –
HepG2 [9] | – | 0.0327
HepG2 [13] | 28.1 | –
U2OS [10] | – | 0.595
U2OS [14] | 13.2 | –
Vero E6 [11] | – | 0.943
Vero E6 [15] | 10.7 | –

Nc1nc(N)c(N=O)c(OCC2CCCCC2)n1 [NU-6027]
Conditions | SARS-CoV-2 infection rate, [6] [%] | cell count, [1] [%] | cell viability, Caco-2 [2] [%] | cell viability, Calu-3 [16] [%] | cell viability, HepG2 [3] [%] | cell viability, U2OS [4] [%] | cell viability, Vero E6 [5] [%] | morphology score, [7]
1 nM | – | – | 100 | 101 | 87.7 | 104 | 96 | –
10 nM | – | – | 97.5 | 117 | 92.7 | 101 | 105 | –
100 nM | – | – | 96.6 | 106 | 96.4 | 104 | 99.8 | –
0.3 µM | 104 | 100 | – | – | – | – | – | -0.13
1000 nM | – | – | 100 | 105 | 89.9 | 101 | 95 | –
3 µM | 68 | 103 | – | – | – | – | – | 0.59
10 µM | 52 | 107 | – | – | – | – | – | 0.62
10000 nM | – | – | 46 | 81.4 | 58.4 | 70.7 | 89.7 | –
30 µM | 41 | 100 | – | – | – | – | – | 0.46

drug-induced phospholipidosis [%], A549-ACE2
Conditions | 0.3 µM | 0.833333 µM | 3.33333 µM | 6.66667 µM | 10 µM | 30 µM
24 h | 1.28 | -0.02 | 2.45 | 3.35 | 2.35 | 28.5
48 h | 2.37 | -0.39 | -0.5 | -1.38 | 1.26 | –
72 h | 1.92 | -1.07 | -2.27 | -1.09 | -1.29 | –

Conditions | drug sensitivity score | relative viability EC50 [µM]
Caco-2 [8] | – | 3.17
Caco-2 [12] | 2.9 | –
Calu-3 [17] | – | > 10
Calu-3 [18] | 0.3 | –
HepG2 [13] | 3.7 | –
U2OS [14] | 1.2 | –
Vero E6 [11] | – | > 10
Vero E6 [15] | 0 | –

CCN(CC)Cc1cc(Nc2ccnc3cc(Cl)ccc23)ccc1O [amodiaquine]
Conditions | SARS-CoV-2 infection rate, [6] [%] | cell count, [1] [%] | cell viability, Caco-2 [2] [%] | cell viability, Calu-3 [16] [%] | cell viability, HepG2 [3] [%] | cell viability, U2OS [4] [%] | cell viability, Vero E6 [5] [%] | morphology score, [7]
1 nM | – | – | 99.3 | 114 | 103 | 98.5 | 101 | –
10 nM | – | – | 92.1 | 110 | 79 | 101 | 99.3 | –
100 nM | – | – | 90.2 | 106 | 85.7 | 103 | 101 | –
0.3 µM | 87 | 109 | – | – | – | – | – | 0.38
1000 nM | – | – | 96.7 | 91.5 | 85.7 | 98.1 | 95.3 | –
3 µM | 24 | 121 | – | – | – | – | – | 0.87
10 µM | 12 | 133 | – | – | – | – | – | 0.76
10000 nM | – | – | 58.5 | 81.8 | 57.7 | 93.9 | 84.9 | –
30 µM | 14 | 121 | – | – | – | – | – | 0.1

Conditions | drug sensitivity score | relative viability EC50 [µM]
Caco-2 [12] | 2.6 | –
Calu-3 [17] | – | > 10
Calu-3 [18] | 1.3 | –
HepG2 [13] | 5.5 | –
U2OS [10] | – | > 10
U2OS [14] | 0 | –
Vero E6 [11] | – | > 10
Vero E6 [15] | 0.6 | –
